According to patent US12366579B2, “Sulfur-heterocycle exchange chemistry and uses thereof” (University of Virginia Patent Foundation, priority 2019, dated 2025):
Entries after “also recorded” stand apart in the source; their conditions may differ.

Legend:
A549 cells = experiment: Chemical phosphoproteomics of pervanadate-activated cells by SuTEx probe labeling (SILAC); type: cell-based, human; settings: pervanadate 100 μM, 30 min, HHS-475 100 μM
Protocol: Pervanadate (100 mM) was prepared as previously described^41 by mixing 100 μL of sodium orthovanadate (100 mM Na3VO4, New England BioLabs #P0758S, Ipswich, Massachusetts, United States of America) with 1 μL of hydrogen peroxide (H2O2, 30% v/v in water) on ice. […] After pervanadate treatment, cells were washed twice with cold PBS followed by harvest. Cell pellets were resuspended in PBS supplemented with protease and phosphatase inhibitor mini tablets (Thermo Scientific #A32959; ThermoFisher Scientific, Waltham, Massachusetts, United States of America) and then lysed by sonication (3×1 sec pulse, 20% amplitude). For CTNND1 western blot studies, cell pellets were lysed in NP40 Cell Lysis Buffer (#FNN0021, Invitrogen, Carlsbad, California, United States of America) supplemented with protease/phosphatase inhibitor tablets. Cell lysates were separated via centrifugation at 100,000×g for 45 min at 4° C. for western blot or chemical proteomic studies. Note: pervanadate treatments are performed on live cells but SuTEx probe labeling occurs in proteomes in vitro.
Proteomes from cells treated with pervanadate activation conditions (100 μM, 30 min) were labeled with HHS-475 or HHS-482 (100 μM, 30 min) followed by CuAAC with desthiobiotin and quantitative LC-MS to evaluate how phosphorylation status affected SuTEx probe labeling. […] In total ˜2,200 probe-modified tyrosine sites were detected across ˜1,000 proteins using both HHS-475 and HHS-482 that were further separated into pervanadate-sensitive (PerS, SR≥2) and -insensitive groups (PerI, SR<2). The probe-modified tyrosines found in the PerS group appeared to be enriched for annotated phosphotyrosine sites (HTP≥10 in PhosphoSitePlus, see FIGS. 6C and 18) and represented only a small fraction of all unique HHS-475- and HHS-482-modified tyrosines detected by chemical proteomics (˜3%, 67 sites). […]

DM93 and HEK293T cells = experiment: Proteome-wide profiling of sulfonyl imidazole analogs in live cells; type: cell-based, human; settings: 100 μM, 2 hours, 37° C.
Protocol: A chemical proteomic treatment and analysis protocol was established to evaluate the structural-induced effect on the proteomic coverage of the sulfonyl imidazole analogs. […] Duke Melanoma 93 (DM93) and human embryonic kidney 293T (HEK293T) cells were treated with the probes (100 μM, 2 hours, 37° C.). The cells were harvested, washed and fractionated to expose the proteome. The cytosolic proteome subsequently underwent copper-catalyzed azide-alkyne cycloaddition (CuAAC) with a dethiobiotin PEG-3 azide tag. The tagged proteomes were digested with trypsin lys-C protease mixture, enriched by avidin affinity chromatography, eluted and analyzed by chromatography-tandem high-resolution mass spectrometry (LC-MS). The bioinformatic match of probe modified peptides was filtered with data confidence control criteria of ≥300 Byonic score, ≥3 log probability and ≤5 ppm mass accuracy (amino acid residue modifications of Y, K, N, Q, and W were processed at this point).

[1] = target: T1, recombinant GSTP1 lysates (Homo sapiens, UniProt P09211); experiment: GSTP1 biochemical substrate assay (GSH conjugation to BDNB); settings: negative control probes; highest concentration tested 100 μM
T1 construct: FLAG (C); host or cells: HEK293T, transient transfection; soluble proteome used unpurified
Protocol: GSTP1 Biochemical Substrate Assay
Recombinant GSTP1-HEK293T soluble cell proteomes were diluted to 1 mg ml^−1 in assay buffer (100 mM NaH2PO4, pH 7.0). Samples were treated with inhibitor at indicated concentrations for 30 min at 37° C. GSH stock solution (250 mM in water) was diluted to 4 mM in assay buffer and 25 μl of diluted GSH solution was added to each sample. A substrate stock solution of 75 mM 1-bromo-2,4-dinitrobenzene […] in ethanol was diluted to 2 mM in assay buffer. Samples (25 μl) were aliquoted into a 96-well plate and spun briefly via centrifuge. Next, 50 μl of 2 mM BDNB was added to each well and the reaction was monitored in kinetic mode by measuring absorbance at 340 nm for 10 min on a BMG Labtech CLARIOstar plate reader (BMG Labtech, Cary, North Carolina, United States of America).

T1 sequence (P09211 whole entry): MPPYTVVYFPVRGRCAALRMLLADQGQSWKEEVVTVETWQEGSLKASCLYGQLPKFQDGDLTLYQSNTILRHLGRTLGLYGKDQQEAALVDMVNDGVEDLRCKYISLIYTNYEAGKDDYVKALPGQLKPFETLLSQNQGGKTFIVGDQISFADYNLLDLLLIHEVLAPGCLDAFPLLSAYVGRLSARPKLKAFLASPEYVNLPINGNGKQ

| Compound | Y/K specificity (DM93 and HEK293T cells) | overall reactivity towards tyrosine and lysine residues (number of sites) (DM93 and HEK293T cells) | further results |
| --- | --- | --- | --- |
| pervanadate | – | – | SILAC ratio (SR, light PBS/heavy pervanadate) of SuTEx probe labeling at CTNND1 Y228 (A549 cells): 3.3; SILAC ratio (SR, light PBS/heavy pervanadate) of SuTEx probe labeling at PKM Y105 (A549 cells): 1.1; SILAC ratio (SR, light PBS/heavy pervanadate) of SuTEx probe labeling at STAT3 Y705 (A549 cells): 2.3 |
| C#CCNC(=O)c1ccc(S(=O)(=O)n2ccnc2)cc1 [HHS-Im-01, 4-((1H-imidazol-1-yl)sulfonyl)-N-(prop-2-yn-1-yl)benzamide] | 0.77 | 329 | – |
| O=S(=O)(C1CC1)n1cnc(-c2ccncc2)n1 [JWB191, 4-(1-(Cyclopropylsulfonyl)-1H-1,2,4-triazol-3-yl)pyridine] | – | – | inhibitory activity against GSTP1 [1]: lack of activity; also recorded: did not show inhibitory activity |
| C#CCNC(=O)c1ccc(S(=O)(=O)n2cnc(C(F)(F)F)c2)cc1 [KY-Im-TFM, N-(prop-2-yn-1-yl)-4-((4-(trifluoromethyl)-1H-imidazol-1-yl)sulfonyl)benzamide] | 3.58 | 338 | – |
